Results as given in patent US12421253B2 (Mirati Therapeutics, Inc., priority 2020, dated 2025).

Legend:
KRas^G12R = molecular target: T1, KRas^G12R (Homo sapiens, UniProt P01116, G12R); assay: KRas binding assay (TR-FRET displacement of Cy5 labelled tracer)
T1 construct: […]; biotin (biotinylated); purchased Accelegan Inc

KRas^Q61H = KRas^Q61H (Homo sapiens, UniProt P01116, Q61H); assay: biochemical
KRas^G12A = molecular target: T2, KRas^G12A (Homo sapiens, UniProt P01116, G12A); assay: KRas binding assay (TR-FRET displacement of Cy5 labelled tracer)
T2 construct: […]; biotin (biotinylated); purchased Accelegan Inc

KRas^WT = molecular target: T3, KRas^WT (Homo sapiens, UniProt P01116); assay: as above
T3 construct: […]; biotin (biotinylated); purchased Accelegan Inc

KRas^G12S = molecular target: T4, KRas^G12S (Homo sapiens, UniProt P01116, G12S); assay: as above
T4 construct: […]; biotin (biotinylated); purchased Accelegan Inc

KRas^G13D = KRas^G13D (Homo sapiens, UniProt P01116, G13D); assay: biochemical
KRas^G12D = molecular target: T5, KRas^G12D (Homo sapiens, UniProt P01116, G12D); assay: KRas binding assay (TR-FRET displacement of Cy5 labelled tracer)
T5 construct: […]; biotin (biotinylated); purchased Accelegan Inc

KRas^G12V = molecular target: T6, KRas^G12V (Homo sapiens, UniProt P01116, G12V); assay: as above
T6 construct: […]; biotin (biotinylated); purchased Accelegan Inc

KRas^G12C = KRas^G12C (Homo sapiens, UniProt P01116, G12C); assay: biochemical
KRas^G12C, sequence (P01116 1-169 isoform P01116-2 G12C): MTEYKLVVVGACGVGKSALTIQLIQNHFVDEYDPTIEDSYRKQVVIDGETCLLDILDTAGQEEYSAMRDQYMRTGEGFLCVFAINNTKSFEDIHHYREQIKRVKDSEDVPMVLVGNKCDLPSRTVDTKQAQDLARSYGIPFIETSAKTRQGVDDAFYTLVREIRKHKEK

T5 sequence (P01116 1-169 isoform P01116-2 G12D): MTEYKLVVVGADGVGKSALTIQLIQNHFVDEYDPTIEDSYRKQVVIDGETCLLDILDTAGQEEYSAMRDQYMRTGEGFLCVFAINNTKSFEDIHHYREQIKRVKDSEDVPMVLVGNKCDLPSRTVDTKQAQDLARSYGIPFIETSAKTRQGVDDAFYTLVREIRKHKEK
T6 sequence (P01116 1-169 isoform P01116-2 G12V): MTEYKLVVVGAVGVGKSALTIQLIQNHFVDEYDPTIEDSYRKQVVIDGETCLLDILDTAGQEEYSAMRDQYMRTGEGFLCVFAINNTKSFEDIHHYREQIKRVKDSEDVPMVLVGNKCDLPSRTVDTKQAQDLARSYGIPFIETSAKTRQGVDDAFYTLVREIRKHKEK
T3 sequence (P01116 1-169 isoform P01116-2): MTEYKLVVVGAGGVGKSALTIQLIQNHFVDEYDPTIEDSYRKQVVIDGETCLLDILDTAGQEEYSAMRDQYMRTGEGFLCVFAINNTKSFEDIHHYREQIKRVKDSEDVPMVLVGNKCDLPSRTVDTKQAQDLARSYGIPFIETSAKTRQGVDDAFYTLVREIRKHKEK
T1 sequence (P01116 1-169 isoform P01116-2 G12R): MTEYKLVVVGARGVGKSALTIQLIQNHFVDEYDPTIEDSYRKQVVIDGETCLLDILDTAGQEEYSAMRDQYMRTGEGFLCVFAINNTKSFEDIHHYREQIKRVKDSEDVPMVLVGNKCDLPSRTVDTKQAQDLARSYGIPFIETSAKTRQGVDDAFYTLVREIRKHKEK
T2 sequence (P01116 1-169 isoform P01116-2 G12A): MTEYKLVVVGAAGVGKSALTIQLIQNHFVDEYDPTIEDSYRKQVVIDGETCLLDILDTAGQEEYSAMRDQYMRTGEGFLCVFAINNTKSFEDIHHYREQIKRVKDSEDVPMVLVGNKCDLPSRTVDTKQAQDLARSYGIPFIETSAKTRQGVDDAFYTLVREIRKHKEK
KRas^Q61H, sequence (P01116 1-169 isoform P01116-2 Q61H): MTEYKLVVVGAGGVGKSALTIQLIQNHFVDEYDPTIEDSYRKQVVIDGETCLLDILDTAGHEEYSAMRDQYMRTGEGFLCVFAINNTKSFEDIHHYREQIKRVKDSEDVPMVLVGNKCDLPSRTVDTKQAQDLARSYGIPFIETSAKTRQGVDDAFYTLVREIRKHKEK
KRas^G13D, sequence (P01116 1-169 isoform P01116-2 G13D): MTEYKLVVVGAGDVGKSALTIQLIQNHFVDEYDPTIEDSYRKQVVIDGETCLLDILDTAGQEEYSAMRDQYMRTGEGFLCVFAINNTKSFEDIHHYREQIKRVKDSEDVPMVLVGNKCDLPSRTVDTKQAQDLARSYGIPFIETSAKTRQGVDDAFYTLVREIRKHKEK
T4 sequence (P01116 1-169 isoform P01116-2 G12S): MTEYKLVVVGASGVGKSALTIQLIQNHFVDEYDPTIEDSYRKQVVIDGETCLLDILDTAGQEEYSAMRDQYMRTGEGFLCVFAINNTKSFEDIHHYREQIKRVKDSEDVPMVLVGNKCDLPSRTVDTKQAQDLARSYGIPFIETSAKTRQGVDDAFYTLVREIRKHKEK

SMILES	IC50 (KRas^G12R) [nM]	IC50 (KRas^Q61H) [nM]	IC50 (KRas^G12A) [nM]	IC50 (KRas^WT) [nM]	IC50 (KRas^G12S) [nM]	IC50 (KRas^G13D) [nM]	IC50 (KRas^G12D) [nM]	IC50 (KRas^G12V) [nM]	IC50 (KRas^G12C) [nM]
CCc1cccc2cccc(N3CCc4c(nc(OCC56CCCN5CCC6)nc4N4CCCCC(C)C4)C3)c12 (stereo not shown) [Example 119]	836	778	644	967	797	735	1050	564	811
Oc1cc(N2CCc3c(nc(OC[C@@]45CCCN4C[C@H](F)C5)nc3N3CC4CC(O)CC3C4)C2)c2c(Br)c(F)ccc2c1 (single isomer, unassigned) [Example 214]	54						558	118	
CCc1cccc2cccc(N3CCc4c(nc(OCC56CCCN5CCC6)nc4N4CCCC(C)(O)C4)C3)c12 (stereo not shown) [Example 4, 1-(7-(8-ethylnaphthalen-1-yl)-2-((hexahydro-1H-pyrrolizin-7a-yl)methoxy)-5,6,7,8-tetrahydropyrido[3,4-d]pyrimidin-4-yl)-3-methylpiperidin-3-ol]	127						97	90	
CCc1cccc2cccc(N3CCc4c(nc(OCC56CCCN5CCC6)nc4N4CCCC(O)C4)C3)c12 (stereo not shown) [Example 43, 1-(7-(8-ethylnaphthalen-1-yl)-2-((hexahydro-1H-pyrrolizin-7a-yl)methoxy)-5,6,7,8-tetrahydropyrido[3,4-d]pyrimidin-4-yl)piperidin-3-ol]	198						552	271	271
CCc1cccc2cccc(N3CCc4c(nc(OCC56CCCN5CCC6)nc4N4CCC(O)CC(CO)C4)C3)c12 (single isomer, unassigned) [Example 173, 1-(7-(8-ethylnaphthalen-1-yl)-2-((hexahydro-1H-pyrrolizin-7a-yl)methoxy)-5,6,7,8-tetrahydropyrido[3,4-d]pyrimidin-4-yl)-6-(hydroxymethyl)azepan-4-ol]	307						1160	535	
CCc1c(F)ccc2cccc(N3CCc4c(nc(OCC56CCCN5CCC6)nc4N4CCC[C@@](C)(O)C4)C3)c12 [Example 3, (R)-1-(7-(8-ethyl-7-fluoronaphthalen-1-yl)-2-((hexahydro-1H-pyrrolizin-7a-yl)methoxy)-5,6,7,8-tetrahydropyrido[3,4-d]pyrimidin-4-yl)-3-methylpiperidin-3-ol]	25						16	17	
CCc1cccc2cccc(N3CCc4c(nc(OCC56CCCN5CCC6)nc4N4CCC(O)CC(CO)C4)C3)c12 (single isomer, unassigned) [Example 172, 1-(7-(8-ethylnaphthalen-1-yl)-2-((hexahydro-1H-pyrrolizin-7a-yl)methoxy)-5,6,7,8-tetrahydropyrido[3,4-d]pyrimidin-4-yl)-6-(hydroxymethyl)azepan-4-ol]	153						224	153	

Further compounds by falling IC50 (KRas^G12R), results first:

IC50 (KRas^G12R) [nM]	IC50 (KRas^Q61H) [nM]	IC50 (KRas^G12A) [nM]	IC50 (KRas^WT) [nM]	IC50 (KRas^G12S) [nM]	IC50 (KRas^G13D) [nM]	IC50 (KRas^G12D) [nM]	IC50 (KRas^G12V) [nM]	IC50 (KRas^G12C) [nM]	SMILES
8280						16600	8800		CCc1cccc2cccc(N3CCc4c(nc(OCC56CCCN5CCC6)nc4NCC4(C)CSC4)C3)c12 [Example 171, 7-(8-ethylnaphthalen-1-yl)-N-((3-methylthietan-3-yl)methyl)-2-((tetrahydro-1H-pyrrolizin-7a(5H)-yl)methoxy)-5,6,7,8-tetrahydropyrido[3,4-d]pyrimidin-4-amine]
8070						19100	7650		CCc1cccc2cccc(N3CCc4c(nc(OCC56CCCN5CCC6)nc4Nc4cccnc4)C3)c12 [Example 5, 7-(8-ethylnaphthalen-1-yl)-2-((hexahydro-1H-pyrrolizin-7a-yl)methoxy)-N-(pyridin-3-yl)-5,6,7,8-tetrahydropyrido[3,4-d]pyrimidin-4-amine]
7910						20000	2860	6570	CCc1cccc2cccc(N3CCc4c(nc(OCC56CCCN5CCC6)nc4N4CCN(c5ccncn5)CC4)C3)c12 [Example 58, 7-(8-ethylnaphthalen-1-yl)-2-((hexahydro-1H-pyrrolizin-7a-yl)methoxy)-4-(4-(pyrimidin-4-yl)piperazin-1-yl)-5,6,7,8-tetrahydropyrido[3,4-d]pyrimidine]
5120						8480	7170		CCc1cccc2cccc(N3CCc4c(nc(OCC56CCCN5CCC6)nc4NCCc4ccno4)C3)c12 [Example 169, 7-(8-ethylnaphthalen-1-yl)-N-(2-(isoxazol-5-yl)ethyl)-2-((tetrahydro-1H-pyrrolizin-7a(5H)-yl)methoxy)-5,6,7,8-tetrahydropyrido[3,4-d]pyrimidin-4-amine]
3460						7110	5170		CCc1cccc2cccc(N3CCc4c(nc(OCC56CCCN5CCC6)nc4N4CCCC(c5noc(C(F)(F)F)n5)C4)C3)c12 (stereo not shown) [Example 163, 3-(1-(7-(8-ethylnaphthalen-1-yl)-2-((tetrahydro-1H-pyrrolizin-7a(5H)-yl)methoxy)-5,6,7,8-tetrahydropyrido[3,4-d]pyrimidin-4-yl)piperidin-3-yl)-5-(trifluoromethyl)-1,2,4-oxadiazole]
756	523	464	509	601	654	843	450	418	CCc1cccc2cccc(N3CCc4c(nc(OCC56CCCN5CCC6)nc4N(C)CC(C)(C)O)C3)c12 [Example 113, 1-((7-(8-ethylnaphthalen-1-yl)-2-((tetrahydro-1H-pyrrolizin-7a(5H)-yl)methoxy)-5,6,7,8-tetrahydropyrido[3,4-d]pyrimidin-4-yl)(methyl)amino)-2-methylpropan-2-ol]
485			445			≤ 2	204		CCc1cccc2cccc(N3CCc4c(nc(OCC56CCCN5CCC6)nc4N4CCCCC(CO)C4)C3)c12 (stereo not shown) [Example 38, (1-(7-(8-ethylnaphthalen-1-yl)-2-((hexahydro-1H-pyrrolizin-7a-yl)methoxy)-5,6,7,8-tetrahydropyrido[3,4-d]pyrimidin-4-yl)azepan-3-yl)methanol]
168			214			479	221		CCc1cccc2cccc(N3CCc4c(nc(OCC56CCCN5CCC6)nc4N4CCOCC(CO)C4)C3)c12 (stereo not shown) [Example 37, (4-(7-(8-ethylnaphthalen-1-yl)-2-((hexahydro-1H-pyrrolizin-7a-yl)methoxy)-5,6,7,8-tetrahydropyrido[3,4-d]pyrimidin-4-yl)-1,4-oxazepan-6-yl)methanol]
165						740	188		Oc1cc(N2CCc3c(nc(OC[C@@]45CCCN4C[C@H](F)C5)nc3N3CC4CC(O)CC3C4)C2)c2c(Cl)c(F)ccc2c1 (single isomer, unassigned) [Example 77]
24						287	38		CCc1cccc2cccc(N3CCc4c(nc(OCC56CCCN5CCC6)nc4N4CCC(O)CC(CO)C4)C3)c12 (single isomer, unassigned) [Example 174, 1-(7-(8-ethylnaphthalen-1-yl)-2-((hexahydro-1H-pyrrolizin-7a-yl)methoxy)-5,6,7,8-tetrahydropyrido[3,4-d]pyrimidin-4-yl)-6-(hydroxymethyl)azepan-4-ol]
